Consider two molecules from ChEMBL document CHEMBL4834487, “Model studies towards prodrugs of the glutamine antagonist 6-diazo-5-oxo-l-norleucine (DON) containing a diazo precursor” (Bioorg Med Chem Lett, 2021).

Molecules are shown by their SMILES.

Data set [1] in a line: Stability of compound in potassium phosphate buffer at pH 7.4 assessed as parent compound remaining measured after 30 mins. Conditions: read-out: Stabilty. It is filed as physicochemical.
The nature of data set [2]: Metabolic stability in pig liver homogenate assessed as parent compound remaining measured after 30 mins. It is filed as ADME, tissue-based, Sus scrofa. Conditions: read-out: Stabilty.
The nature of data set [3]: Metabolic stability in pig brain homogenate assessed as parent compound remaining measured after 30 mins. It is filed as ADME, tissue-based, Sus scrofa. The note with it: read-out: Stabilty.
Data set [4] is described as follows: Stability of compound in sodium acetate buffer at pH 4 assessed as parent compound remaining measured after 60 mins. It is filed as physicochemical. The note with it: read-out: Stabilty.
Data set [5] is described as follows: Stability of the compound in DMSO measured for 24 hrs. It is filed as physicochemical.
Data set [6] is described as follows: Drug metabolism in pig brain homogenate assessed as 6-Diazo-5-oxo-L-norleucin formation by ion chromatogram analysis. It is filed as ADME, tissue-based, Sus scrofa.
Data set [7] is described as follows: Drug metabolism in pig brain homogenate assessed as N-acetyl-6-Diazo-5-oxo-L-norleucin formation by ion chromatogram analysis. It is filed as ADME, tissue-based, Sus scrofa.
A short description of data set [8]: Stability of the compound in DMSO measured within 12 hrs. It is filed as physicochemical.

On to `CC(=O)N[C@@H](CCC(=O)Cn1nnc2c(C(N)=O)ncn2c1=O)C(=O)O`, for which the remaining at 0.5 h in data set [1], in data set [2] and in data set [3] was < 5% throughout. The remaining at 1 h in data set [4] is > 95%. Further, the Stabilty result in data set [5] was “Stable”. Moreover, the results for the Drug metabolism entry in data set [6] and in data set [7] were “Metabolite_Notdetected” and “Metabolite_Detected”, respectively.

For the molecule `CC(=O)NC(CCC(=O)CN(N=O)C(=O)OCc1ccccc1)C(=O)O` (stereo not drawn), the Stabilty result in data set [8] was “Unstable”.
